Results published in patent publication US20250304623A1, “PEPTIDES FOR INTRACELLULAR DELIVERY” (UNIVERSIDADE DE SANTIAGO DE COMPOSTELA, priority 2022, published 2025).
*: point of attachment. NHNH2 = NN*

What was measured:
Format in all cases: cell-based
A549 cells = test: RLuc pDNA delivery, robotic library screening, A549
Method: (§1) Cells were seeded in a 96 well plate the day before the experiment at a concentration of 60,000 cell/mL (100 μL/w) in DMEM+10% FBS+1% Gln-Abt. For robotic library screening, the delivery of pDNA encoding for the expression of Renilla luciferase gene (RLuc, pRL-CMV (Promega, #E2261)) in six different cell lines was performed. Amphihilic molecule stock solutions in DMSO were diluted with DMEM and freshly mixed with pDNA stock solutions in DMEM prior to transfection experiments, to afford several complexes at different amphiphile concentration (2-10 μM) while maintaining a constant final pDNA concentration of 2 ng/μL. The mixture was shaken for 30 min at room temperature before the addition to the cells. The cell medium was aspirated, and cells were washed twice with PBS. Finally, 50 μL of the complex's solution were added to the cells and incubated for 4 h. After the incubation, the medium was replaced by 100 μL of fresh DMEM supplemented with 10% FBS. 72 hours after transfection the DMEM was removed, cells were washed once with HBSS and 90 μL of HBSS were added to each well. Cells were incubated at 37° C. for 30 minutes. Then basal luminescence levels were read in a plate reader. Immediately, 10 μL of coelenterazine h in HBSS were added to each well (5 μM final concentration) and cells were incubated at 37° C. for 10 minutes. Finally, the total luminescence measurement of the plates was performed. Amphiphile transfection efficiency was compared and normalized to Lipofectamine® 2000 efficiency (value of 1 in Tables 1-5 and 7; bold numbers). All experiments were done in triplicate.
(§2) Tables 1-7: RLuc (pDNA) or EGFP (mRNA) expression levels were normalized to Lipofectamine reagents (value=1) and expressed as fold-times signal increase. In the case of siRNA, the siRNA treated cells fluorescence was compared with siMOCK control fluorescence, while Cas9-RNP mediated knockout was measured against the fluorescence of untreated cells. In both siRNA and Cas9-RNP, values are expressed as % fluorescence reduction. Amphiphile concentration was 5 μM in all cases. All experiments were performed in triplicate.
(§3) Tables 8-13 show the mean (triplicates) luminescent intensity (RLU) measured after the transfection of RLuc pDNA by different amphiphiles at different concentrations in a variety of cell lines. Background luminescence values, accounted by untransfected control cells, were subtracted for processing.

ARPE19 cells = test: RLuc pDNA delivery, robotic library screening, ARPE19
HCT116 cells = test: RLuc pDNA delivery, robotic library screening, HCT116
Hek293 cells = test: RLuc pDNA delivery, robotic library screening, Hek293
Hela cells = test: RLuc pDNA delivery, robotic library screening, HeLa; settings: Hela
Method: as §1, with “Amphihilic molecule stock solutions in DMSO were diluted with DMEM and freshly mixed with pDNA stock solutions in DMEM prior to transfection experiments, to afford several complexes at different amphiphile concentration (2-10 μM) while maintaining a constant final pDNA concentration of 2 ng/μL.” left out
as §2, §3

HepG2 cells = test: RLuc pDNA delivery, robotic library screening, HepG2; settings: Oleyl
Method: as §1, §2, §3

## Ac-RK*RRK*K*R-NH2 (Ac-RK(NHNH2)RRK(NHNH2)K(NHNH2)R-NH2; not fully specified; printed as Ac-RK*RRK*K*R-NH2; also: K*2,K*5,K*6: native or modified lysine (ε-amide to a linker)) [7.3(L-R)]
A549 cells; Oleyl, 5 μM
  mean luminescent intensity (RLuc pDNA): 13651 RLU
A549 cells; Palmitoleyl, 5 μM
  mean luminescent intensity (RLuc pDNA): 5366 RLU
A549 cells; Palmitoleyl, 15 μM
  mean luminescent intensity (RLuc pDNA): 12440 RLU
A549 cells; Petroselinyl, 15 μM
  mean luminescent intensity (RLuc pDNA): 7194 RLU
ARPE19 cells; Myristoleyl, 5 μM
  mean luminescent intensity (RLuc pDNA): 522 RLU
ARPE19 cells; Myristoleyl, 10 μM
  mean luminescent intensity (RLuc pDNA): 20 RLU
ARPE19 cells; Myristoleyl, 15 μM
  mean luminescent intensity (RLuc pDNA): 56 RLU
ARPE19 cells; Palmitoleyl, 5 μM
  mean luminescent intensity (RLuc pDNA): 2987 RLU
ARPE19 cells; Petroselinyl, 5 μM
  mean luminescent intensity (RLuc pDNA): 2177 RLU
HCT116 cells; Myristoleyl, 5 μM
  mean luminescent intensity (RLuc pDNA): 7939 RLU
HCT116 cells; Myristoleyl, 10 μM
  mean luminescent intensity (RLuc pDNA): −83 RLU
HCT116 cells; Myristoleyl, 15 μM
  mean luminescent intensity (RLuc pDNA): −41 RLU
HCT116 cells; Palmitoleyl, 5 μM
  mean luminescent intensity (RLuc pDNA): 22225 RLU
HCT116 cells; Palmitoleyl, 10 μM
  mean luminescent intensity (RLuc pDNA): 41280 RLU
HCT116 cells; Petroselinyl, 5 μM
  mean luminescent intensity (RLuc pDNA): 2832 RLU
HCT116 cells; Petroselinyl, 10 μM
  mean luminescent intensity (RLuc pDNA): 9686 RLU
Hek293 cells; Myristoleyl, 5 μM
  mean luminescent intensity (RLuc pDNA): 46216 RLU
Hek293 cells; Myristoleyl, 10 μM
  mean luminescent intensity (RLuc pDNA): 51837 RLU
Hek293 cells; Myristoleyl, 15 μM
  mean luminescent intensity (RLuc pDNA): 10351 RLU
Hek293 cells; Palmitoleyl, 5 μM
  mean luminescent intensity (RLuc pDNA): 73751 RLU
Hek293 cells; Palmitoleyl, 10 μM
  mean luminescent intensity (RLuc pDNA): 115755 RLU
Hek293 cells; Palmitoleyl, 15 μM
  mean luminescent intensity (RLuc pDNA): 29282 RLU
Hek293 cells; Petroselinyl, 5 μM
  mean luminescent intensity (RLuc pDNA): 9983 RLU
Hek293 cells; Petroselinyl, 10 μM
  mean luminescent intensity (RLuc pDNA): 59396 RLU
Hek293 cells; Petroselinyl, 15 μM
  mean luminescent intensity (RLuc pDNA): 8037 RLU
Hela cells; Myristoleyl, 5 μM
  mean luminescent intensity (RLuc pDNA): 3647 RLU
Hela cells; Myristoleyl, 10 μM
  mean luminescent intensity (RLuc pDNA): 2076 RLU
Hela cells; Myristoleyl, 15 μM
  mean luminescent intensity (RLuc pDNA): 22 RLU
Hela cells; Palmitoleyl, 5 μM
  mean luminescent intensity (RLuc pDNA): 62538 RLU
Hela cells; Palmitoleyl, 10 μM
  mean luminescent intensity (RLuc pDNA): 25113 RLU
Hela cells; Palmitoleyl, 15 μM
  mean luminescent intensity (RLuc pDNA): 3405 RLU
Hela cells; Petroselinyl, 5 μM
  mean luminescent intensity (RLuc pDNA): 4972 RLU
HepG2 cells; 5 μM
  mean luminescent intensity (RLuc pDNA): 1696 RLU
HepG2 cells; 10 μM
  mean luminescent intensity (RLuc pDNA): 22303 RLU
HepG2 cells; 15 μM
  mean luminescent intensity (RLuc pDNA): 6498 RLU
